Key:
Test in all cases: KINOMEscan competition binding
Conditions in all cases: compound 10.0 µM
ABL1 (human) = ABL1 (human) (UniProt P00519)
ABL2 (human) = ABL2 (human) (UniProt P42684)
AKT2 (human) = AKT2 (human) (UniProt P31751)
CAMK2B (human) = CAMK2B (human) (UniProt Q13554)
CDK18 (human) = CDK18 (human) (UniProt Q07002)
CDK3 (human) = CDK3 (human) (UniProt Q00526)
CHEK1 (human) = CHEK1 (human) (UniProt O14757)
CSK (human) = CSK (human) (UniProt P41240)
[1] = test system: EGFR (human), P00533 [A750P; 747-749 del]
[2] = test system: EGFR (human), P00533 [L861Q]
EIF2AK2 (human) = EIF2AK2 (human) (UniProt P19525)
EPHA6 (human) = EPHA6 (human) (UniProt Q9UF33)
[3] = test system: FGFR3 (human), P22607 [G697C]
FRK (human) = FRK (human) (UniProt P42685)
FYN (human) = FYN (human) (UniProt P06241)
HCK (human) = HCK (human) (UniProt P08631)
LTK (human) = LTK (human) (UniProt P29376)
MAP3K12 (human) = MAP3K12 (human) (UniProt Q12852)
MAP4K5 (human) = MAP4K5 (human) (UniProt Q9Y4K4)
MAPK14 (human) = MAPK14 (human) (UniProt Q16539)
MAPK6 (human) = MAPK6 (human) (UniProt Q16659)
MAPK7 (human) = MAPK7 (human) (UniProt Q13164)
MARK1 (human) = MARK1 (human) (UniProt Q9P0L2)
NEK6 (human) = NEK6 (human) (UniProt Q9HC98)
NEK7 (human) = NEK7 (human) (UniProt Q8TDX7)
NTRK3 (human) = NTRK3 (human) (UniProt Q16288)
PAK2 (human) = PAK2 (human) (UniProt Q13177)
PIK3CD (human) = PIK3CD (human) (UniProt O00329)
PLK3 (human) = PLK3 (human) (UniProt Q9H4B4)
PRKG2 (human) = PRKG2 (human) (UniProt Q13237)
[4] = test system: RET (human), P07949 [M918T]
[5] = test system: RET (human), P07949 [V804L]
RPS6KA2 KD1 (human) = RPS6KA2 KD1 (human) (UniProt Q15349)
RPS6KA4 KD1 (human) = RPS6KA4 KD1 (human) (UniProt O75676)
SLK (human) = SLK (human) (UniProt Q9H2G2)
SRC (human) = SRC (human) (UniProt P12931)
SRMS (human) = SRMS (human) (UniProt Q9H3Y6)
STK25 (human) = STK25 (human) (UniProt O00506)
STK35 (human) = STK35 (human) (UniProt Q8TDR2)
STK4 (human) = STK4 (human) (UniProt Q13043)
[6] = molecular target: TYK2 JH1 catalytic (human) (UniProt P29597)
ULK3 (human) = ULK3 (human) (UniProt Q6PHR2)

Chain of STK35 (human) (Q8TDR2 whole entry, looked up): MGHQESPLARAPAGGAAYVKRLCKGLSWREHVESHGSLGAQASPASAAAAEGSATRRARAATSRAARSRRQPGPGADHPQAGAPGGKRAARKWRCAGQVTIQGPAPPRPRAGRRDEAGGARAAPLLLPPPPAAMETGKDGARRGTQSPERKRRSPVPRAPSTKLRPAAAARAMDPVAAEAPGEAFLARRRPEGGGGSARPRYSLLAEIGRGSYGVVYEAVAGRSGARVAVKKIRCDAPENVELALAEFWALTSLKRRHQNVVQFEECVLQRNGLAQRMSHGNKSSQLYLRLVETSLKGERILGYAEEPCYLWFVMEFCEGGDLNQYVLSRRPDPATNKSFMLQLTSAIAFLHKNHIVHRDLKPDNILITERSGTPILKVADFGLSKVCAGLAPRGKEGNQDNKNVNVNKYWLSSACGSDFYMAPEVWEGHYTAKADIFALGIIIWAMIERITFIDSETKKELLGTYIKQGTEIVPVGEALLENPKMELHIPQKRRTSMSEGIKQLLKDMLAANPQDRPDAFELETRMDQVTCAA
Chain of RPS6KA4 KD1 (human) (O75676 whole entry, looked up): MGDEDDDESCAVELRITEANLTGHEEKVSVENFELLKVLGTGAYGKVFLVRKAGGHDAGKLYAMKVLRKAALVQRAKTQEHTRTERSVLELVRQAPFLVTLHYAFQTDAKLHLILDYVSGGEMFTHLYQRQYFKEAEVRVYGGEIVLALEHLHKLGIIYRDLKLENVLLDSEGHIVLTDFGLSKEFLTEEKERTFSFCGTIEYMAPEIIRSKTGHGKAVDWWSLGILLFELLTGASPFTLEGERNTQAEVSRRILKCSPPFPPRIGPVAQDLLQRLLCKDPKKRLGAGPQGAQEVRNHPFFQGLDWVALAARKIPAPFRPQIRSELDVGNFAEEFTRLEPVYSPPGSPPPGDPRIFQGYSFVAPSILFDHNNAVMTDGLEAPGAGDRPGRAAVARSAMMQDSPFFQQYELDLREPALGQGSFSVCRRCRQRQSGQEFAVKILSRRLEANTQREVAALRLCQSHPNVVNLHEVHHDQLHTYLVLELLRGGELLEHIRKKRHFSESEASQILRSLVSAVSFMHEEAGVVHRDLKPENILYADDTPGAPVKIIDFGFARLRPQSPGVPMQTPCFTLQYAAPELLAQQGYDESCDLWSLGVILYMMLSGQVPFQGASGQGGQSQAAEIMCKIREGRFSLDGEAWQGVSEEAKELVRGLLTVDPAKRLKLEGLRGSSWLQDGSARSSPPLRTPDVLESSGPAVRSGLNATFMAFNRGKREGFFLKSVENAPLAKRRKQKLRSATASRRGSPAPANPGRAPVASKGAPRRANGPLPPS
Chain of TYK2 JH1 catalytic (human) (P29597 whole entry, looked up): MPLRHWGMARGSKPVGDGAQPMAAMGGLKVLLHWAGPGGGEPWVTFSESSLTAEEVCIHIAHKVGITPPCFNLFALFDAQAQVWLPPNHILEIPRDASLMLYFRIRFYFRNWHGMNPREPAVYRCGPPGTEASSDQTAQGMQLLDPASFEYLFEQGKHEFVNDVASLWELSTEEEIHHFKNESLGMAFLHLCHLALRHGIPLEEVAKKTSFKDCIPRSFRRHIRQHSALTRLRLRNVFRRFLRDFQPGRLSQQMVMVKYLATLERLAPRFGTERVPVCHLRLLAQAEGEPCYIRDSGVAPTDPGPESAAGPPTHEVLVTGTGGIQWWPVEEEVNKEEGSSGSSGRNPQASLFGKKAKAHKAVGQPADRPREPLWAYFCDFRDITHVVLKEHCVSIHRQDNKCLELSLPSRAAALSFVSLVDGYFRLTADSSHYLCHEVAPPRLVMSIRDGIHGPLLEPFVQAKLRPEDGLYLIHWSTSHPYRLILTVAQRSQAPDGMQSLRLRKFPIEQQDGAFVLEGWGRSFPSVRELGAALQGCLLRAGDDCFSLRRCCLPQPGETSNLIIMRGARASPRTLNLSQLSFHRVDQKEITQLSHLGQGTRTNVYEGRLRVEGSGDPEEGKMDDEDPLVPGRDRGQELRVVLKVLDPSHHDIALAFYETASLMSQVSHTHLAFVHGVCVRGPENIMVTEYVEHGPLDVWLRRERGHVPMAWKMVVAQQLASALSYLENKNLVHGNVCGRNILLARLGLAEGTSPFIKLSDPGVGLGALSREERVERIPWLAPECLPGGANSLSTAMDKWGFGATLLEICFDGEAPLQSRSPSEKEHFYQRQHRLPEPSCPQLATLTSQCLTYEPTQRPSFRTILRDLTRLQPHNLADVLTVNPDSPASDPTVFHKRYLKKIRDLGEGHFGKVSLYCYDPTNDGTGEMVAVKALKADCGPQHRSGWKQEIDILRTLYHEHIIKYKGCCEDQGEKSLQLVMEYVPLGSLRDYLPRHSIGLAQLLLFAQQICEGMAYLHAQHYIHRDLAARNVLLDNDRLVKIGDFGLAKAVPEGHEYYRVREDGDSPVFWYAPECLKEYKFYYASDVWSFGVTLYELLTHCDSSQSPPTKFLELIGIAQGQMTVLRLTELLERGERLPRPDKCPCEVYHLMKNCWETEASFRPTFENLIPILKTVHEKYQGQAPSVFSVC
Chain of ABL1 (human) (P00519 whole entry, looked up): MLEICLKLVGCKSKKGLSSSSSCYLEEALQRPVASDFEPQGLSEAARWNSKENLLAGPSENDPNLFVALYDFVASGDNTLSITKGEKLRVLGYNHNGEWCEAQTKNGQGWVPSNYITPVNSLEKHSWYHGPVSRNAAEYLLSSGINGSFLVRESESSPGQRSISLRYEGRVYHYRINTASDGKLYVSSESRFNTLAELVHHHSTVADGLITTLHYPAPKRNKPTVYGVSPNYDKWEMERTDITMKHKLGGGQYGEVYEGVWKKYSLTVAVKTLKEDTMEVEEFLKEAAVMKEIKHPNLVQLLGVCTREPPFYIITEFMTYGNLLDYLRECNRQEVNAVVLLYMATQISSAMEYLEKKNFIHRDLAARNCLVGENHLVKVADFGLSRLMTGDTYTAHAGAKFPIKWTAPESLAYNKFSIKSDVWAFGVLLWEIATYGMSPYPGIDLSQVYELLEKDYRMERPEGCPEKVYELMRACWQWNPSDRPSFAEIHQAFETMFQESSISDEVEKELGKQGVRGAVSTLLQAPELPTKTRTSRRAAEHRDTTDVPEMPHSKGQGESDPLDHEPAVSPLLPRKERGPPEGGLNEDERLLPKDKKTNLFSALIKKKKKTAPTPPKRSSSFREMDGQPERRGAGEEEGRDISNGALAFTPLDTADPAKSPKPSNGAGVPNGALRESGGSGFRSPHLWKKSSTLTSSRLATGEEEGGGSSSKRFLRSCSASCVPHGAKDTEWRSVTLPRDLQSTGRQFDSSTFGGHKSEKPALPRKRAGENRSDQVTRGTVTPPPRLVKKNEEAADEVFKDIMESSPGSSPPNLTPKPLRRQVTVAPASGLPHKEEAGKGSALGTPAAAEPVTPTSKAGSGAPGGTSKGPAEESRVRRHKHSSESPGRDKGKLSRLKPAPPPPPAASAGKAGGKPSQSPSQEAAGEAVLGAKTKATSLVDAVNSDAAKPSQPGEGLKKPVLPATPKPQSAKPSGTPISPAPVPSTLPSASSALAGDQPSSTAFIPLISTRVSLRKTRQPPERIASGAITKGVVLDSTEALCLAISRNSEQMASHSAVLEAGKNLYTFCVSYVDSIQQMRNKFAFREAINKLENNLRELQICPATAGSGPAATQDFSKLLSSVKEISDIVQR
Chain of MAPK7 (human) (Q13164 whole entry, looked up): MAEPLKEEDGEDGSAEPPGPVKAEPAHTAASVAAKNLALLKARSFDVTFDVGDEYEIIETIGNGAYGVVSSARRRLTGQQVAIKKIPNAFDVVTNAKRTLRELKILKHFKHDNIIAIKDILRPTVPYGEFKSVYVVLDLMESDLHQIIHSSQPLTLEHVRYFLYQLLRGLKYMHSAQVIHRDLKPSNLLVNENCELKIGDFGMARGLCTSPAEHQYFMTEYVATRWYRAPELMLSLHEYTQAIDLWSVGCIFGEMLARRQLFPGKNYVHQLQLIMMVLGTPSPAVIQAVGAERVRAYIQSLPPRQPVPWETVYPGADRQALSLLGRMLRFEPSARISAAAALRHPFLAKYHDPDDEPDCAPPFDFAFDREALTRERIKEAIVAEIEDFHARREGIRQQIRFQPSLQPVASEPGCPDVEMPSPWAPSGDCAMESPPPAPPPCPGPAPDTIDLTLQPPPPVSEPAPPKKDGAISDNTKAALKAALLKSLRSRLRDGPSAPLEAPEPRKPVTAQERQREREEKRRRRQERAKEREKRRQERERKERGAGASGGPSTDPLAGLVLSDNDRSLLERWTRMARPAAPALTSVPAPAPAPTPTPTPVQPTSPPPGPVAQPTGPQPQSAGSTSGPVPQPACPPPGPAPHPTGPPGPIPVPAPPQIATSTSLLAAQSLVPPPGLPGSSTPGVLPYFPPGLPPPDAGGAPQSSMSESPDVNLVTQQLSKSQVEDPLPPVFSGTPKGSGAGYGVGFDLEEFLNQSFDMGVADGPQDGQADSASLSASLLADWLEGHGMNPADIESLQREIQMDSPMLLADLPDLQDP
Chain of CSK (human) (P41240 whole entry, looked up): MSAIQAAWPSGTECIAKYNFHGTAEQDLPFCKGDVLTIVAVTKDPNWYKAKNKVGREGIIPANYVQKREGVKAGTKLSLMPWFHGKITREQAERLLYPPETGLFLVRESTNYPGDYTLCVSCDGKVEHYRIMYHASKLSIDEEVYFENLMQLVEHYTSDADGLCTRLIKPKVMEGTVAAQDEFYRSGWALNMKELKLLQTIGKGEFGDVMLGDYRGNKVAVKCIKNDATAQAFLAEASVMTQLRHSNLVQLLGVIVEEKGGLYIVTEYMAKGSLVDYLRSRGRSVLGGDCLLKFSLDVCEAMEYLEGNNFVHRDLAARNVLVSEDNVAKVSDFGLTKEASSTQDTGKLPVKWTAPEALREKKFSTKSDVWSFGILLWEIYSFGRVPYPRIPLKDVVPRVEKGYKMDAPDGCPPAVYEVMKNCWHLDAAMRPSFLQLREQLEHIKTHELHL

## O=C1NC(=O)/C(=C/c2c[nH]c(=O)c(-c3ccc(N4CCNCC4)nc3)c2)S1
ABL1 (human)
  kinase still bound, per cent of control: 91%
ABL2 (human)
  kinase still bound, per cent of control: 78%
AKT2 (human)
  kinase still bound, per cent of control: 100%
CAMK2B (human)
  kinase still bound, per cent of control: 47%
CDK18 (human)
  kinase still bound, per cent of control: 82%
CDK3 (human)
  kinase still bound, per cent of control: 100%
CHEK1 (human)
  kinase still bound, per cent of control: 2.4%
CSK (human)
  kinase still bound, per cent of control: 80%
[1]
  kinase still bound, per cent of control: 56%
[2]
  kinase still bound, per cent of control: 69%
EIF2AK2 (human)
  kinase still bound, per cent of control: 38%
EPHA6 (human)
  kinase still bound, per cent of control: 97%
[3]
  kinase still bound, per cent of control: 100%
FRK (human)
  kinase still bound, per cent of control: 90%
FYN (human)
  kinase still bound, per cent of control: 92%
HCK (human)
  kinase still bound, per cent of control: 100%
LTK (human)
  kinase still bound, per cent of control: 100%
MAP3K12 (human)
  kinase still bound, per cent of control: 76%
MAP4K5 (human)
  kinase still bound, per cent of control: 52%
MAPK14 (human)
  kinase still bound, per cent of control: 100%
MAPK6 (human)
  kinase still bound, per cent of control: 93%
MAPK7 (human)
  kinase still bound, per cent of control: 48%
MARK1 (human)
  kinase still bound, per cent of control: 100%
NEK6 (human)
  kinase still bound, per cent of control: 100%
NEK7 (human)
  kinase still bound, per cent of control: 100%
NTRK3 (human)
  kinase still bound, per cent of control: 88%
PAK2 (human)
  kinase still bound, per cent of control: 53%
PIK3CD (human)
  kinase still bound, per cent of control: 0%
PLK3 (human)
  kinase still bound, per cent of control: 85%
PRKG2 (human)
  kinase still bound, per cent of control: 100%
[4]
  kinase still bound, per cent of control: 46%
[5]
  kinase still bound, per cent of control: 70%
RPS6KA2 KD1 (human)
  kinase still bound, per cent of control: 64%
RPS6KA4 KD1 (human)
  kinase still bound, per cent of control: 100%
SLK (human)
  kinase still bound, per cent of control: 29%
SRC (human)
  kinase still bound, per cent of control: 100%
SRMS (human)
  kinase still bound, per cent of control: 86%
STK25 (human)
  kinase still bound, per cent of control: 77%
STK35 (human)
  kinase still bound, per cent of control: 79%
STK4 (human)
  kinase still bound, per cent of control: 96%
[6]
  kinase still bound, per cent of control: 2.5%
ULK3 (human)
  kinase still bound, per cent of control: 100%

## N=C1NC(=O)/C(=C/c2ccc(-c3csc4ccccc34)o2)S1
NEK6 (human)
  kinase still bound, per cent of control: 25%
NEK7 (human)
  kinase still bound, per cent of control: 33%

## COc1cc(N2CCC(O)CC2)ccc1Nc1ncc2c(n1)N1CCc3cccc(c31)C(=O)N2C
ABL1 (human)
  kinase still bound, per cent of control: 100%
ABL2 (human)
  kinase still bound, per cent of control: 96%
AKT2 (human)
  kinase still bound, per cent of control: 100%
CAMK2B (human)
  kinase still bound, per cent of control: 72%
CDK18 (human)
  kinase still bound, per cent of control: 100%
CDK3 (human)
  kinase still bound, per cent of control: 97%
CHEK1 (human)
  kinase still bound, per cent of control: 100%
CSK (human)
  kinase still bound, per cent of control: 90%
[1]
  kinase still bound, per cent of control: 84%
[2]
  kinase still bound, per cent of control: 64%
EIF2AK2 (human)
  kinase still bound, per cent of control: 48%
EPHA6 (human)
  kinase still bound, per cent of control: 82%
[3]
  kinase still bound, per cent of control: 97%
FRK (human)
  kinase still bound, per cent of control: 81%
FYN (human)
  kinase still bound, per cent of control: 100%
HCK (human)
  kinase still bound, per cent of control: 100%
LTK (human)
  kinase still bound, per cent of control: 100%
MAP3K12 (human)
  kinase still bound, per cent of control: 71%
MAP4K5 (human)
  kinase still bound, per cent of control: 99%
MAPK14 (human)
  kinase still bound, per cent of control: 61%
MAPK6 (human)
  kinase still bound, per cent of control: 100%
MAPK7 (human)
  kinase still bound, per cent of control: 0.3%
MARK1 (human)
  kinase still bound, per cent of control: 95%
NEK6 (human)
  kinase still bound, per cent of control: 30%
NEK7 (human)
  kinase still bound, per cent of control: 98%
NTRK3 (human)
  kinase still bound, per cent of control: 93%
PAK2 (human)
  kinase still bound, per cent of control: 67%
PIK3CD (human)
  kinase still bound, per cent of control: 48%
PLK3 (human)
  kinase still bound, per cent of control: 0.75%
PRKG2 (human)
  kinase still bound, per cent of control: 96%
[4]
  kinase still bound, per cent of control: 100%
[5]
  kinase still bound, per cent of control: 100%
RPS6KA2 KD1 (human)
  kinase still bound, per cent of control: 77%
RPS6KA4 KD1 (human)
  kinase still bound, per cent of control: 96%
SLK (human)
  kinase still bound, per cent of control: 95%
SRC (human)
  kinase still bound, per cent of control: 100%
SRMS (human)
  kinase still bound, per cent of control: 87%
STK25 (human)
  kinase still bound, per cent of control: 99%
STK35 (human)
  kinase still bound, per cent of control: 95%
STK4 (human)
  kinase still bound, per cent of control: 78%
[6]
  kinase still bound, per cent of control: 64%
ULK3 (human)
  kinase still bound, per cent of control: 100%

## N=C1NC(=O)/C(=C/c2ccc(-c3cncc4ccccc34)o2)S1
CAMK2B (human)
  kinase still bound, per cent of control: 17%
CSK (human)
  kinase still bound, per cent of control: 12%
EIF2AK2 (human)
  kinase still bound, per cent of control: 25%
NEK6 (human)
  kinase still bound, per cent of control: 31%
NEK7 (human)
  kinase still bound, per cent of control: 15%
PAK2 (human)
  kinase still bound, per cent of control: 24%
PLK3 (human)
  kinase still bound, per cent of control: 16%
[4]
  kinase still bound, per cent of control: 21%
[5]
  kinase still bound, per cent of control: 23%
RPS6KA2 KD1 (human)
  kinase still bound, per cent of control: 26%
RPS6KA4 KD1 (human)
  kinase still bound, per cent of control: 15%
STK25 (human)
  kinase still bound, per cent of control: 18%

## N=C1NC(=O)/C(=C/c2c[nH]c(=O)c(-c3ccc(N4CCNCC4)nc3)c2)S1
CHEK1 (human)
  kinase still bound, per cent of control: 3.4%

## CS(=O)(=O)Nc1ccc(-c2cncc(/C=C3\SC(=N)NC3=O)c2)cc1
ABL1 (human)
  kinase still bound, per cent of control: 34%
[1]
  kinase still bound, per cent of control: 17%
MAP4K5 (human)
  kinase still bound, per cent of control: 12%
SLK (human)
  kinase still bound, per cent of control: 2.8%
STK35 (human)
  kinase still bound, per cent of control: 30%

## O=C1NC(=S)S/C1=C\c1ccc(-c2cncc3ccccc23)o1
CAMK2B (human)
  kinase still bound, per cent of control: 22%
CSK (human)
  kinase still bound, per cent of control: 33%
EIF2AK2 (human)
  kinase still bound, per cent of control: 23%
LTK (human)
  kinase still bound, per cent of control: 13%
NEK6 (human)
  kinase still bound, per cent of control: 24%
NEK7 (human)
  kinase still bound, per cent of control: 17%
NTRK3 (human)
  kinase still bound, per cent of control: 32%
PAK2 (human)
  kinase still bound, per cent of control: 31%
STK25 (human)
  kinase still bound, per cent of control: 20%

## CN1C(=O)[C@H]2CCC[C@H]2N(C2CCCC2)c2nc(Nc3ccc(C(N)=O)cc3)ncc21
MAPK7 (human)
  kinase still bound, per cent of control: 0.1%
PLK3 (human)
  kinase still bound, per cent of control: 4.7%
RPS6KA2 KD1 (human)
  kinase still bound, per cent of control: 24%
SLK (human)
  kinase still bound, per cent of control: 3.4%
[6]
  kinase still bound, per cent of control: 19%

## N=C1NC(=O)/C(=C/c2ccc(-c3ccc(C(N)=O)cc3O)o2)S1
CDK3 (human)
  kinase still bound, per cent of control: 30%
PIK3CD (human)
  kinase still bound, per cent of control: 26%
SRMS (human)
  kinase still bound, per cent of control: 33%

## CS(=O)(=O)Nc1ccc(-c2ncc(/C=C3\SC(=N)NC3=O)s2)cc1
ABL1 (human)
  kinase still bound, per cent of control: 27%
[4]
  kinase still bound, per cent of control: 3.4%
SLK (human)
  kinase still bound, per cent of control: 1.4%

## N=C1NC(=O)/C(=C/c2ccc(-c3ccccc3O)o2)S1
CDK3 (human)
  kinase still bound, per cent of control: 24%

## N=C1NC(=O)/C(=C/c2ccc(-c3ccc(F)cc3O)o2)S1
CDK3 (human)
  kinase still bound, per cent of control: 6.5%
[1]
  kinase still bound, per cent of control: 29%

## Nc1cccc(-c2cc(/C=C3\SC(=O)NC3=O)c[nH]c2=O)c1
[1]
  kinase still bound, per cent of control: 9.4%
[6]
  kinase still bound, per cent of control: 14%

## CS(=O)(=O)Nc1ccc(-c2cc(/C=C3\SC(=N)NC3=O)c[nH]c2=O)cc1
CHEK1 (human)
  kinase still bound, per cent of control: 32%

Reference: the kinase profiling compilation of Christmann-Franck et al. (2016)
